In patent publication US5023271A, “Pharmaceutical microemulsions” (priority 1985, dated 1991):

How the values were obtained:
[1] = Long term daily injection to rabbits, serum samples at 1 week intervals; settings: 1 ml preparation of Example 1 daily for 30 days
Description: New Zealand male rabbits were injected daily with 1 ml doses of the preparation of Example 1 for 30 days.

[2] = in vivo; settings: rabbit, iv, 15 mL/animal
Description: (§1) The rabbits were then sacrificed and the tissues analyzed for their content of tocopherol and tocopherol acetate.

[3] = Short term serum and tissue levels after intravenous injection to rabbits
Description: as §1

[4] = Serum and liver extract levels in rats after IV injection; settings: 1 ml preparation of Example 1 IV
Description: The animals were sacrificed at 15 minute intervals for the first hour, after two hours, and then after 1, 3, 5, and 10 days. The levels of α-tocopherol and tocopherol acetate were assayed in the sera and liver extracts.

[5] = system: lipoprotein fractions; assay: Distribution of injected α-tocopherol and tocopherol acetate among serum lipoprotein fractions of rabbits
Description: The serum samples were also layered under a sodium chloride gradient and centrifuged. The distribution of the injected α-tocopherol and tocopherol acetate among the lipoprotein fractions was assessed.

[6] = system: lipoprotein components of human serum; assay: In vitro transfer of tocopherol from microemulsion to human serum lipoproteins (sodium chloride gradient); settings: 100 μl microemulsion of Example 1 + 900 μl saline, 1 hr, 37°
Description: The diffusion of tocopherol in the mixtures was compared with the distribution of lipoproteins in the same mixtures and with the distribution of tocopherol from the untreated emulsion.
For a control, 100 μl of the microemulsion were incubated with 900 μl of saline solution under the same conditions. Each mixture was underlayered in a sodium chloride gradient and separated by ultracentrifugation according to Foreman, et al, J Lipid Research (1977) 18:759-767. The fractions of various densities were collected and each fraction was assayed for the content of tocopherol, tocopherol acetate, and cholesterol. The microemulsion alone mixed with saline gives a single peak for tocopherol at a density of approximately 1.018 g/ml. […] The treatment of microemulsion with serum effects the transfer of the tocopherol to serum in conjunction with the lipoprotein content thereof.

[7] = cited from earlier work

Compound | serum tocopherol acetate [1] | concentration at 5 min [2] [µg/mL] | α-tocopherol acetate in circulation by the end of 4 hr ([3]; 15 ml preparation of Example 1 i.v., 4 hr) | α-tocopherol acetate in liver, spleen, and other tissues ([3]; after 4 hr) | hydrolysis of tocopherol acetate in liver [4] | distribution among lipoprotein fractions after injection ([5]; preparation of Example 1 i.v., serum samples on sodium chloride gradient) | density of the tocopherol peak, microemulsion mixed with saline (control) [6] | distribution among lipoprotein fractions after injection ([5]; rabbit, in vivo, iv) | adverse outcome of oral administration ([7]; in vivo, po) | adverse outcome of intravenous administration ([7]; intravenous, premature infants)
CC(=O)Oc1c(C)c(C)c2c(c1C)CCC(C)(CCC[C@H](C)CCC[C@H](C)CCCC(C)C)O2 (stereo partly drawn) [tocopherol acetate, α-tocopherol (dl) acetate] | No tocopherol acetate was detectable | 280 | finally disappearing from the circulation by the end of the 4 hr period | no α-tocopherol acetate could be detected | completely hydrolyzed after approximately two hours | remained mainly at the density of the microemulsion alone | – | – | – | –
Cc1c(C)c2c(c(C)c1O)CCC(C)(CCCC(C)CCCC(C)CCCC(C)C)O2 (racemic) [α-tocopherol] | – | – | – | – | – | – | approximately 1.018 g/ml | transferred, apparently to the LDL fraction, in exchange for cholesterol | gastrointestinal problems | implicated in several neonatal deaths
